Data from PubChem BioAssay AID1259407 (Chemical Carcinogenesis Research Information System (CCRIS), 2018).
Activity calls are given as the source filed them. The rule behind the calls is not given here.

Tested on: CCRIS mutagenicity, Ames/micronucleus/aberration tests
Test: CCRIS mutagenicity studies

Measured: mutagenic call

COC1=C(OC)C(=O)C(C/C=C(\C)CC/C=C(\C)CC/C=C(\C)CC/C=C(\C)CC/C=C(\C)CC/C=C(\C)CC/C=C(\C)CC/C=C(\C)CC/C=C(\C)CCC=C(C)C)=C(C)C1=O
inactive: Test System: AMES SALMONELLA TYPHIMURIUM, Strain/Indicator: TA98, Metabolic Activation: NONE, Method: PREINCUBATION inactive; negative | Test System: AMES SALMONELLA TYPHIMURIUM, Strain/Indicator: TA98, Metabolic Activation: RAT, LIVER, S-9, PHENOBARBITAL AND 5,6-BENZOFLAVONE, Method: PREINCUBATION inactive; negative | Test System: AMES SALMONELLA TYPHIMURIUM, Strain/Indicator: TA100, Metabolic Activation: NONE, Method: PREINCUBATION inactive; negative | Test System: AMES SALMONELLA TYPHIMURIUM, Strain/Indicator: TA100, Metabolic Activation: RAT, LIVER, S-9, PHENOBARBITAL AND 5,6-BENZOFLAVONE, Method: PREINCUBATION inactive; negative | Test System: AMES SALMONELLA TYPHIMURIUM, Strain/Indicator: TA1535, Metabolic Activation: NONE, Method: PREINCUBATION inactive; negative | Test System: AMES SALMONELLA TYPHIMURIUM, Strain/Indicator: TA1535, Metabolic Activation: RAT, LIVER, S-9, PHENOBARBITAL AND 5,6-BENZOFLAVONE, Method: PREINCUBATION inactive; negative | Test System: AMES SALMONELLA TYPHIMURIUM, Strain/Indicator: TA1537, Metabolic Activation: NONE, Method: PREINCUBATION inactive; negative | Test System: AMES SALMONELLA TYPHIMURIUM, Strain/Indicator: TA1537, Metabolic Activation: RAT, LIVER, S-9, PHENOBARBITAL AND 5,6-BENZOFLAVONE, Method: PREINCUBATION inactive; negative | Test System: E. COLI, Strain/Indicator: WP2UVRA, Metabolic Activation: NONE, Method: PREINCUBATION inactive; negative | Test System: E. COLI, Strain/Indicator: WP2UVRA, Metabolic Activation: RAT, LIVER, S-9, PHENOBARBITAL AND 5,6-BENZOFLAVONE, Method: PREINCUBATION inactive; negative

O=C(OCCBr)[C@@H](O)[C@H](O)C(=O)OCCBr
active: Test System: AMES SALMONELLA TYPHIMURIUM, Strain/Indicator: TA100, Metabolic Activation: NONE, Method: STANDARD PLATE active; positive | Test System: AMES SALMONELLA TYPHIMURIUM, Strain/Indicator: TA100, Metabolic Activation: RAT, LIVER, S-9, AROCLOR 1254, Method: STANDARD PLATE active; positive

O=C1c2cc(O)cc(O)c2C(=O)c2c1cc1c(c2O)[C@@H]2C=CO[C@@H]2O1
active: Test System: UDS RODENT HEPATOCYTES, Strain/Indicator: THY INCORP, Metabolic Activation: NONE, Method: AUTORADIOGRAPHY active; positive

COc1c(C(=O)O)c(=O)[nH]c2ccccc12
inactive: Test System: AMES SALMONELLA TYPHIMURIUM, Strain/Indicator: TA98, Metabolic Activation: NONE, Method: STANDARD PLATE inactive; negative | Test System: AMES SALMONELLA TYPHIMURIUM, Strain/Indicator: TA98, Metabolic Activation: RAT LIVER S-9, PHENOBARTITAL, Method: STANDARD PLATE inactive; negative
